# Experimental data reported in ChEMBL document CHEMBL1201862, “PubChem BioAssay data set” (2004).
# Active and inactive are the calls of the source.
# Experiments:
# [1] = molecular target: Luciferin 4-monooxygenase (Photinus pyralis, UniProt P08659); test: inhibition of purified Photinus pyralis luciferase – biochemical, luminescence, dose response (AID 1891)
# [2] = molecular target: T1, Orexin/Hypocretin receptor type 1 (Homo sapiens, UniProt O43613); test: (§1) Fluorescence-based cell-based high throughput dose response assay for antagonists of the orexin 1 receptor (OX1R; HCRTR1). [Related pubchem assays (depositor defined):AID434989, AID435008, AID463079, AID485270, AID492963, AID492964, AID492965, AID493232, AID504717, AID504718]; type: functional
# T1 sequence (O43613 whole entry): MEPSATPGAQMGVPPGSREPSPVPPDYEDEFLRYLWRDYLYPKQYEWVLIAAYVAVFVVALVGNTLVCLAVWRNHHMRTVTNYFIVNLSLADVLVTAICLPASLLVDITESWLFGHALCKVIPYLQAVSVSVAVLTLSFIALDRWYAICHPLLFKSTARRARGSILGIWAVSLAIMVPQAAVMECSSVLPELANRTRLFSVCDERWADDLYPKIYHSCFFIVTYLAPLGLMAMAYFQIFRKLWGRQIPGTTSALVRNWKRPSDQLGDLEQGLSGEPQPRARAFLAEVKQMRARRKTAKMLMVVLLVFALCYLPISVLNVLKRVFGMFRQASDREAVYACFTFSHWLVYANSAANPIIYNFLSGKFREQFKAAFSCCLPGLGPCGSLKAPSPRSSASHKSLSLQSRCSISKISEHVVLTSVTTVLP
# Cytochrome P450 2D6 = Cytochrome P450 2D6 (Homo sapiens, UniProt P10635);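 note: CYP2D6 member of a cytochrome P450 panel assay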
# [3] = Luminescence Cell-Based Dose Confirmation HTS to Identify Inhibitors of Platelet Dense Granule Release. [Related pubchem assays: 1663 (Primary HTS), 1678 (Summary of Project)]; type: functional
# [4] = (§2) Counterscreen for antagonists of the orexin 1 receptor (OX1R; HCRTR1): Fluorescence-based cell-based high throughput dose response assay to identify antagonists of the parental CHO cell line. [Related pubchem assays (depositor defined):AID434989, AID435008, AID463079, AID485270, AID492963, AID492964, AID492965, AID493232, AID504699, AID504701]; type: functional
# Orexin receptor type 2 [5] = molecular target: T2, Orexin receptor type 2 (Homo sapiens, UniProt O43614); test: Counterscreen assay for antagonists of the orexin 1 receptor (OX1R; HCRTR1): Homogeneous Time Resolved Fluorescence (HTRF)-based cell-based dose response assay for antagonists of the orexin 2 receptor (OX2R; HCRTR2), run by assay provider.; type: functional
# T2 sequence (O43614 whole entry): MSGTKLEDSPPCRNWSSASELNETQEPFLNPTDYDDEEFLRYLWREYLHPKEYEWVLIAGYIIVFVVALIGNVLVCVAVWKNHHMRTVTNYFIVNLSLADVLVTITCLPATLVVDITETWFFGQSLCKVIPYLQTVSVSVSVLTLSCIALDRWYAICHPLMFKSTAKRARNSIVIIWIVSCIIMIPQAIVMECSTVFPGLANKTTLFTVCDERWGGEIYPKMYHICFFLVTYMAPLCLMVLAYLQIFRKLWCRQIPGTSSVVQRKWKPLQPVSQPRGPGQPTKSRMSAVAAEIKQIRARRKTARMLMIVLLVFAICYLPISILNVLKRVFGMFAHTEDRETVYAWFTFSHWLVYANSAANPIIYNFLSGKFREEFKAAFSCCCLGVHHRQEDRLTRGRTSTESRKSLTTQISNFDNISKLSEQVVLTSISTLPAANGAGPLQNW
# CHO-K1 = test: as §2, with “Homogeneous time resolved fluorescence (HTRF)-based” for “Fluorescence-based”, “cell-based” for “cell-based high throughput”, “CHO-K1” for “CHO”; type: functional; settings: Cricetulus griseus;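 note: potency for inhibition of ATP-stimulated IP1 production as antagonists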
# Orexin receptor type 2 [6] = molecular target: T2, Orexin receptor type 2; test: Counterscreen assay for antagonists of the orexin 1 receptor (OX1R; HCRTR1): Fluorescence-based cell-based dose response assay for antagonists of the orexin 2 receptor (OX2R; HCRTR2), run by assay provider.; type: functional
# Cytochrome P450 2C9 = Cytochrome P450 2C9 (Homo sapiens, UniProt P11712)
# [7] = molecular target: T1, Orexin/Hypocretin receptor type 1; test: as §1, with “Homogeneous Time Resolved Fluorescence (HTRF)-based” for “Fluorescence-based”; type: functional
# [8] = molecular target: T3, Sentrin-specific protease 7 (Homo sapiens, UniProt Q9BQF6); test: inhibition of human SENP7 cleavage activity – biochemical, luminescence, SAR follow-up (AID 504497); type: functional
# T3 sequence (Q9BQF6 whole entry): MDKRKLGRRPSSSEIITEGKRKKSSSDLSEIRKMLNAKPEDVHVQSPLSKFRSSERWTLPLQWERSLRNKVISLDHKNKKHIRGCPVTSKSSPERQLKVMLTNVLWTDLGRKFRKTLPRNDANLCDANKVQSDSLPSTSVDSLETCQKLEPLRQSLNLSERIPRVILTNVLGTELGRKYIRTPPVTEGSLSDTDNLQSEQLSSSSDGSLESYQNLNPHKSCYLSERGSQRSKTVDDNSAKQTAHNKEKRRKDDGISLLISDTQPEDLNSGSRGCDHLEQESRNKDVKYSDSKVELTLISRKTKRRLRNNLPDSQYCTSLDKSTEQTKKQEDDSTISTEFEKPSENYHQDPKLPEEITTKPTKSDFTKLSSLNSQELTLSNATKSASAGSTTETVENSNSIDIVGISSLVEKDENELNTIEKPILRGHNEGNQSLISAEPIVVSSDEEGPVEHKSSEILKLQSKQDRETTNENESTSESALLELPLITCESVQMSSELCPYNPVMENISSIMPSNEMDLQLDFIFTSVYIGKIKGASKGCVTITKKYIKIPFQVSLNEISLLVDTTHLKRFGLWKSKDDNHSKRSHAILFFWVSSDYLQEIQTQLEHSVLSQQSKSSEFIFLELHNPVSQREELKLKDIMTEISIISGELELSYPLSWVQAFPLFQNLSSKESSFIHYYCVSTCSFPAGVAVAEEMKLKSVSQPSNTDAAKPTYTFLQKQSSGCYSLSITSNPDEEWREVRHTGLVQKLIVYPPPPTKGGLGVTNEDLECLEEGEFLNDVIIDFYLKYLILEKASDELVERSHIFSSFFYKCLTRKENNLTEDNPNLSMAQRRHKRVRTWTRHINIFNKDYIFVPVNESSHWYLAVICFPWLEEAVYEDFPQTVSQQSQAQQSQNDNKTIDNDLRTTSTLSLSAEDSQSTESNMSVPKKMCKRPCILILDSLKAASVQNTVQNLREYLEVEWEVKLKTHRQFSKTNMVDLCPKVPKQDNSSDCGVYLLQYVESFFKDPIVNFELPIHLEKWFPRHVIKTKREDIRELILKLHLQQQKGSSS
# [9] = molecular target: T4, Sentrin-specific protease 6 (Homo sapiens, UniProt Q9GZR1); test: SAR Analysis of small molecule inhibitors of Sentrin-specific protease 6 (SENP6) using a Luminescent assay. [Related pubchem assays (depositor defined):AID2582, AID2599]; type: functional
# T4 sequence (Q9GZR1 whole entry): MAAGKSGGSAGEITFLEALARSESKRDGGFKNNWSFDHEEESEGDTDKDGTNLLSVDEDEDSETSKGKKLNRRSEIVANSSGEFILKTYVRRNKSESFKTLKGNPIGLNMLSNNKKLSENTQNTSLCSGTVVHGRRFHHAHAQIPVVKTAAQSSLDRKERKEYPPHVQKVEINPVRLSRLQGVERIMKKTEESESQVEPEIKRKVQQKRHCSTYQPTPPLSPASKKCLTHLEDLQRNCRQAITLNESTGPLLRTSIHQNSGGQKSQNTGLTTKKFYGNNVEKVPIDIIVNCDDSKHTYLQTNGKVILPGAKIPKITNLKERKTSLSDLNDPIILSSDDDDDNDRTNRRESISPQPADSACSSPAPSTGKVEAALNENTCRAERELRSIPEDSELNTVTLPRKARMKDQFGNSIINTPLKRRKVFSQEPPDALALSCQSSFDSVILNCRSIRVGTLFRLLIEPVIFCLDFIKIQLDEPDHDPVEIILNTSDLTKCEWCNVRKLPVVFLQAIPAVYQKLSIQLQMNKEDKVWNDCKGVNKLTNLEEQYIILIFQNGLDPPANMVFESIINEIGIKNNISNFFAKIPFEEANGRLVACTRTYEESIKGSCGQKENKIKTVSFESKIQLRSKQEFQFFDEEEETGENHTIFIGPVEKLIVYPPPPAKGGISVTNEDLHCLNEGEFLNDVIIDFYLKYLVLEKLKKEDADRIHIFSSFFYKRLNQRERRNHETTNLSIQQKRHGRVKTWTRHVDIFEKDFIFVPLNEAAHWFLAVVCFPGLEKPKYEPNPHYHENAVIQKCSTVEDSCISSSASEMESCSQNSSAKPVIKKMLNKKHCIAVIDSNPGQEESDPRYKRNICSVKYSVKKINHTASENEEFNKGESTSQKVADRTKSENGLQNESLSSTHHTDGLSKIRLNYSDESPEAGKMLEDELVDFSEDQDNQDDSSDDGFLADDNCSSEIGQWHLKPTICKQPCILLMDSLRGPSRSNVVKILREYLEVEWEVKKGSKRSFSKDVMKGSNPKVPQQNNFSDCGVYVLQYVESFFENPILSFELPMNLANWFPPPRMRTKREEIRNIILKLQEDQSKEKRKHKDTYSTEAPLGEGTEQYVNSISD
# Caspase-3 = molecular target: T5, Caspase-3 (Homo sapiens, UniProt P42574); test: SAR Analysis of small molecule inhibitors of Sentrin-specific proteases (SENPs) using a Caspase-3 Selectivity assay. [Related pubchem assays (depositor defined):AID2540, AID2599, AID434973, AID489001]; type: functional
# T5 sequence (P42574 whole entry): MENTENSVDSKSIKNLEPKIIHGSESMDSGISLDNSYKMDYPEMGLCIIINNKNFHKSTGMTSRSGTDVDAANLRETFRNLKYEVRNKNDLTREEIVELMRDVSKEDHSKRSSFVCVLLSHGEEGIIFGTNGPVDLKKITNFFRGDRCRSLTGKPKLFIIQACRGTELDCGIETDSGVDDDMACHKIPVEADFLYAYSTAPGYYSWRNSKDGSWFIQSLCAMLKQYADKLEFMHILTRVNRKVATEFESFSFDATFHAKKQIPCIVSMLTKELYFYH
# [10] = molecular target: T6, Sentrin-specific protease 8 (Homo sapiens, UniProt Q96LD8); test: inhibition of human SENP8 cleavage activity – biochemical, luminescence, SAR follow-up (AID 504501); type: functional
# T6 sequence (Q96LD8 whole entry): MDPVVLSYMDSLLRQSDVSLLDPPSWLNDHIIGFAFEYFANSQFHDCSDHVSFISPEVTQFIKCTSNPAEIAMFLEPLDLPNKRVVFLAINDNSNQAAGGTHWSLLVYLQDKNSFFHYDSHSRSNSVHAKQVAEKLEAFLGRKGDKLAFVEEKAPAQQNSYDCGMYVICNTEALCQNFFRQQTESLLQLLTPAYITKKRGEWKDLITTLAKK
# Protein skinhead-1 = molecular target: T7, Protein skinhead-1 (Caenorhabditis elegans, UniProt P34707); type: functional
# T7 sequence (P34707 whole entry): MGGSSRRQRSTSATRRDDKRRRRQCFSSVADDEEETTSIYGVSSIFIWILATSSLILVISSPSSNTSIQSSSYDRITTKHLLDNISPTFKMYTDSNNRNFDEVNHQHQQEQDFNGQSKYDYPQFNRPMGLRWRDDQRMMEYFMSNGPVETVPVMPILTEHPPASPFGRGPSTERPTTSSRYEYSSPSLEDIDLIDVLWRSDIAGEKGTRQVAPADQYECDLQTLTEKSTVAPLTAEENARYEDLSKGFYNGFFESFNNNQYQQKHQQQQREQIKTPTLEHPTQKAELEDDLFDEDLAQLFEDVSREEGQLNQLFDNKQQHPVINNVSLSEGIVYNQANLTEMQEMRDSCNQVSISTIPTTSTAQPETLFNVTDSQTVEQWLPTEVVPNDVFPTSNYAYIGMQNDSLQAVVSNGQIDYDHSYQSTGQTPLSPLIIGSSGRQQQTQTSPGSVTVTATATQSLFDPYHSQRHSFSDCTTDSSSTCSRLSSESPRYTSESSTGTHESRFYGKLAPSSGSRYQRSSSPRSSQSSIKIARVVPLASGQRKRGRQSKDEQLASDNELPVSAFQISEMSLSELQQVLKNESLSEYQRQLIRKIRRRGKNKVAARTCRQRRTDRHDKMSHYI
# Cytochrome P450 2C9, sequence (P11712 whole entry): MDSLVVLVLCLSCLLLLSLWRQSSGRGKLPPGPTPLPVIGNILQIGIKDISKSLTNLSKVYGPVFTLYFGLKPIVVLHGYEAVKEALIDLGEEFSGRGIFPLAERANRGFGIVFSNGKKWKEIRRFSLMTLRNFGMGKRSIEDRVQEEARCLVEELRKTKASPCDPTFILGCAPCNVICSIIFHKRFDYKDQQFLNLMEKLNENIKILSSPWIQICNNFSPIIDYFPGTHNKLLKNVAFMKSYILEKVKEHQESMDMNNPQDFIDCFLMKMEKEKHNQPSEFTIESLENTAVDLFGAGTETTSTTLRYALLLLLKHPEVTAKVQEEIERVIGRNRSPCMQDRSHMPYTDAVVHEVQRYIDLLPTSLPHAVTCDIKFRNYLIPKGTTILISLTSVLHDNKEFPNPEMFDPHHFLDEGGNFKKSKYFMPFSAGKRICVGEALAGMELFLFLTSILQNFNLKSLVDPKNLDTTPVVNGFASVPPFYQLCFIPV
# Cytochrome P450 2D6, sequence (P10635 whole entry): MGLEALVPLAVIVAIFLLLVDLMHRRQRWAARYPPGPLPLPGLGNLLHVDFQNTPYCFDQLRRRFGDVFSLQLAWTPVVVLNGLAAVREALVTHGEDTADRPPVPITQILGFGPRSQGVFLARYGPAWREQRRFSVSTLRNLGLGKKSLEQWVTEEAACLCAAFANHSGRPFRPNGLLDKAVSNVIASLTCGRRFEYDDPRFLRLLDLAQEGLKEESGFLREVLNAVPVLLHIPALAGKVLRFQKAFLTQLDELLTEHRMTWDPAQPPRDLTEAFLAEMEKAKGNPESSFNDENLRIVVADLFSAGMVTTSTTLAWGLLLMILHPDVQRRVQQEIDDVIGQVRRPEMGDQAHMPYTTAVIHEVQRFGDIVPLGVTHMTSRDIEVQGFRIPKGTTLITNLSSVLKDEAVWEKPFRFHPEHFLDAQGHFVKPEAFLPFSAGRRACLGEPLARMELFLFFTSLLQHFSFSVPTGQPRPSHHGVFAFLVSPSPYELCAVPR
# Luciferin 4-monooxygenase, sequence (P08659 whole entry): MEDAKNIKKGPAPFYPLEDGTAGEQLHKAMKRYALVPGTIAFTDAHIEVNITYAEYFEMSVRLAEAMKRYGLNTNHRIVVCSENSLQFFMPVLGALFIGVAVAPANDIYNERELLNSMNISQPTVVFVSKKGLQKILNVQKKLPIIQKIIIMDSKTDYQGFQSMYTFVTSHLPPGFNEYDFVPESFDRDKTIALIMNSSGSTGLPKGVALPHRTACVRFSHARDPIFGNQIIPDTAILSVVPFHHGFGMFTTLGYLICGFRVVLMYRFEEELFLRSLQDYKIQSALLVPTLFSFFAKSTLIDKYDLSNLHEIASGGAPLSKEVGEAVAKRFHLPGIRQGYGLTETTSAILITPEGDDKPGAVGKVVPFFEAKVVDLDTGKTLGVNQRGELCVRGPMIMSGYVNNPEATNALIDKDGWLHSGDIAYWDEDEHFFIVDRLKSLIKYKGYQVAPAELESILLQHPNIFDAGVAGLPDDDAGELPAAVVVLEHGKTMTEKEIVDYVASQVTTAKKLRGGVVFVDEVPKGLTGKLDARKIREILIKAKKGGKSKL
IC50 [8],IC50 [9],IC50 (Caspase-3),IC50 (Protein skinhead-1),Compound,EC50 [1],IC50 [2],AC50 (Cytochrome P450 2D6),EC50 [3],IC50 [4],IC50 (Orexin receptor type 2 [5]),IC50 (CHO-K1),IC50 (Orexin receptor type 2 [6]),AC50 (Cytochrome P450 2C9),IC50 [7],IC50 [10]
> 99 µM (inactive),> 99 µM (inactive),> 99 µM (inactive),–,C/C(=C\c1ccccc1)c1nc(-c2cccc(C(F)(F)F)c2)no1,–,–,–,–,–,–,–,–,–,–,> 99 µM (inactive)
4.3 µM (active),39 µM (active),6.4 µM (active),> 100 µM (inactive),Fc1ccc(/C=C/c2nnc(-c3cccs3)o2)cc1,–,–,–,–,–,–,–,–,–,–,47 µM (active)

# The remaining lines, values behind:
Compound,IC50 [8],IC50 [9],IC50 (Caspase-3),IC50 (Protein skinhead-1),EC50 [1],IC50 [2],AC50 (Cytochrome P450 2D6),EC50 [3],IC50 [4],IC50 (Orexin receptor type 2 [5]),IC50 (CHO-K1),IC50 (Orexin receptor type 2 [6]),AC50 (Cytochrome P450 2C9),IC50 [7],IC50 [10]
COc1ccc(/C=N/Nc2snc(SC)c2C#N)cc1OC,–,–,–,–,46.8 µM (active),4.85 µM (active),0.282 µM (inconclusive),> 112 µM (not active),> 49.8 µM (inactive),> 50 µM (inactive),> 66.2 µM (inactive),> 88.8 µM (inactive),12.6 µM (inconclusive),1.93 µM (active),–
O=C(Nc1nc2c(Br)cccc2s1)c1ccc2c(c1)OCCO2,2.6 µM (active),4.5 µM (active),13 µM (active),–,–,–,–,–,–,–,–,–,–,–,5.3 µM (active)
COc1ccc(NC(=O)C(=O)Nc2cccc3cccnc23)cc1OC,–,–,–,–,–,1.34 µM (active),–,–,> 49.8 µM (inactive),> 50 µM (inactive),> 66.2 µM (inactive),> 88.8 µM (inactive),–,0.475 µM (active),–
